Results from patent publication US20260078130A1, “NAMPT MODULATORS, PREPARATIONS, AND USES THEREOF” (SIRONAX LTD., priority 2022, published 2026).

How the values were obtained:
[1] = tested on: endogenous NAMPT in U2OS cells; test: Cellular NAD+ modulation assay (NAD/NADH-Glo, U2OS cells); assay type: cell-based; details: Homo sapiens, 24 hours incubation, cellular NAD+; for maximal fold induction: read-out: Cellular Emax
Method in brief: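 Endogenous NAMPT stimulation in U2OS cells treated with compound dilution series for 24 h at 37 °C. Cells lysed with DTAB base, acid-treated 15 min at 60 °C, neutralized, NAD+ read by NAD/NADH-Glo luminescence after 40 min at room temperature. EC50 and Emax (fold over DMSO) derived.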

[2] = target: T1, human enzyme NAMPT (full length) (Homo sapiens, UniProt P43490); test: NMN fluorescence biochemical assay (stimulation of NMN synthesis by NAMPT); details: for EC50: NMN fluorescence assay, purified human NAMPT 100 nM, concentration giving half-maximal activation, read-out: Enzymatic EC50; for Enzymatic Emax: fold change of maximal activation compared to DMSO
T1 construct: human enzyme NAMPT (full length)
T1 sequence (P43490 whole entry): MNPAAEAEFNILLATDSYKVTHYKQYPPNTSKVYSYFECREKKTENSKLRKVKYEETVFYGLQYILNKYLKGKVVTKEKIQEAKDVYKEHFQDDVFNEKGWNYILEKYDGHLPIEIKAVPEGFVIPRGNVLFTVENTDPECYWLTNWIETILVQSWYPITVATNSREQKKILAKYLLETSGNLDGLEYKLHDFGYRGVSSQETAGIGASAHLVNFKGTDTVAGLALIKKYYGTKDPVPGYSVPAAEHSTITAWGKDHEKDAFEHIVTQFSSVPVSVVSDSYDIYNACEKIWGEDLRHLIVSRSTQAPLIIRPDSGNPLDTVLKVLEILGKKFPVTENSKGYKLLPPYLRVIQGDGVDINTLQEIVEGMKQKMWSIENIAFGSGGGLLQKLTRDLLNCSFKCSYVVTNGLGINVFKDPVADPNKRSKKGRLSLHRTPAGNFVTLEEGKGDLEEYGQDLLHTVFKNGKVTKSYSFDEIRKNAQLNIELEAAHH
Method in brief: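 Full-length human NAMPT (100 nM) was preincubated 15 min at 37 °C with compound in 50 mM Tris-HCl pH 7.5, 10 mM MgCl2, 2 mM DTT, then reacted 1 h at 37 °C with 50 μM NAM, 100 μM PRPP, 4 mM ATP (stated solution concentrations). NMN was derivatised with acetophenone/KOH then formic acid and read at Ex/Em 382/445 nm; EC50 and Emax (fold over DMSO) reported.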

EC50 [1] [nM] | EC50 [2] [nM] | Enzymatic Emax [2] | Compound | maximal fold induction [1]
< 500 | < 500 | A (A>3) | Cn1ncc(Cl)c1CC1c2cc(C3CC3)ccc2C(=O)N1Cc1ccc2[nH]nnc2c1 (stereo not drawn) [Compound 350, 2-((1H-benzo[d][1,2,3]triazol-5-yl)methyl)-3-((4-chloro-1-methyl-1H-pyrazol-5-yl)methyl)-5-cyclopropylisoindolin-1-one] | > 1.5
< 500 | < 500 | A (A>3) | N#Cc1cncc(C#N)c1CC1c2ccccc2C(=O)N1Cc1ccc2[nH]nnc2c1 (stereo not drawn) [Compound 351, 4-((2-((1H-benzo[d][1,2,3]triazol-5-yl)methyl)-3-oxoisoindolin-1-yl)methyl)pyridine-3,5-dicarbonitrile] | > 1.5
< 500 | < 500 | A (A>3) | Cn1nc(C#N)c(CC2c3ccccc3C(=O)N2Cc2ccc3[nH]nnc3c2)c1Cl (stereo not drawn) [Compound 352, 4-((2-((1H-benzo[d][1,2,3]triazol-5-yl)methyl)-3-oxoisoindolin-1-yl)methyl)-5-chloro-1-methyl-1H-pyrazole-3-carbonitrile] | > 1.5
< 500 | < 500 | A (A>3) | N#Cc1ccnc(C#N)c1CC1c2ccccc2C(=O)N1Cc1ccc2[nH]nnc2c1 (stereo not drawn) [Compound 353, 3-((2-((1H-benzo[d][1,2,3]triazol-5-yl)methyl)-3-oxoisoindolin-1-yl)methyl)pyridine-2,4-dicarbonitrile] | > 1.5
< 500 | < 500 | A (A>3) | Cn1ncc(Cl)c1CC1c2cc(Cl)ccc2C(=O)N1Cc1ccc2[nH]nnc2c1 (stereo not drawn) [Compound 354, 2-((1H-benzo[d][1,2,3]triazol-5-yl)methyl)-5-chloro-3-((4-chloro-1-methyl-1H-pyrazol-5-yl)methyl)isoindolin-1-one] | > 1.5
< 500 | < 500 | A (A>3) | Cc1ccnc(C#N)c1CC1c2cccc(F)c2C(=O)N1Cc1ccc2[nH]nnc2c1 (stereo not drawn) [Compound 356, 3-((2-((1H-benzo[d][1,2,3]triazol-5-yl)methyl)-4-fluoro-3-oxoisoindolin-1-yl)methyl)-4-methylpicolinonitrile] | > 1.5
< 500 | 500 to 5000 | A (A>3) | Cc1noc(Cl)c1CC1c2ccccc2C(=O)N1Cc1ccc2[nH]nnc2c1 (stereo not drawn) [Compound 357, 2-((1H-benzo[d][1,2,3]triazol-5-yl)methyl)-3-((5-chloro-3-methylisoxazol-4-yl)methyl)isoindolin-1-one] | > 1.5
500 to 5000 | < 500 | B (3≥B>2) | Cc1ccnc(C#N)c1CC1c2cc(C#N)ccc2C(=O)N1Cc1ccc2[nH]nnc2c1 (stereo not drawn) [Compound 359, 2-((1H-benzo[d][1,2,3]triazol-5-yl)methyl)-3-((2-cyano-4-methylpyridin-3-yl)methyl)-1-oxoisoindoline-5-carbonitrile] | > 1.5
< 500 | < 500 | B (3≥B>2) | Cc1ccnc(C#N)c1CC1c2cc(C3CC3)ccc2C(=O)N1Cc1ccc2[nH]nnc2c1 (stereo not drawn) [Compound 360, 3-((2-((1H-benzo[d][1,2,3]triazol-5-yl)methyl)-6-cyclopropyl-3-oxoisoindolin-1-yl)methyl)-4-methylpicolinonitrile] | > 1.5
< 500 | < 500 | B (3≥B>2) | Cn1nc(C(F)F)c(Cl)c1CC1c2ccccc2C(=O)N1Cc1ccc2[nH]nnc2c1 (stereo not drawn) [Compound 361, 2-((1H-benzo[d][1,2,3]triazol-5-yl)methyl)-3-((4-chloro-3-(difluoromethyl)-1-methyl-1H-pyrazol-5-yl)methyl)isoindolin-1-one] | > 1.5
< 500 | < 500 | B (3≥B>2) | Cn1nc(C(F)(F)F)c(Cl)c1CC1c2ccccc2C(=O)N1Cc1ccc2[nH]nnc2c1 (stereo not drawn) [Compound 362, 2-((1H-benzo[d][1,2,3]triazol-5-yl)methyl)-3-((4-chloro-1-methyl-3-(trifluoromethyl)-1H-pyrazol-5-yl)methyl)isoindolin-1-one] | > 1.5
< 500 | < 500 | B (3≥B>2) | Cc1cncc(C#N)c1CC1c2ccccc2C(=O)N1Cc1ccc2[nH]nnc2c1 (stereo not drawn) [Compound 364, 4-((2-((1H-benzo[d][1,2,3]triazol-5-yl)methyl)-3-oxoisoindolin-1-yl)methyl)-5-methylnicotinonitrile] | > 1.5
< 500 | < 500 | B (3≥B>2) | Cn1ncc(Cl)c1CC1c2cc(C3COC3)ccc2C(=O)N1Cc1ccc2[nH]nnc2c1 (stereo not drawn) [Compound 370, 2-((1H-benzo[d][1,2,3]triazol-5-yl)methyl)-3-((4-chloro-1-methyl-1H-pyrazol-5-yl)methyl)-5-(oxetan-3-yl)isoindolin-1-one] | > 1.5
< 500 | < 500 | B (3≥B>2) | COCCOc1nn(C)c(CC2c3ccccc3C(=O)N2Cc2ccc3[nH]nnc3c2)c1Cl (stereo not drawn) [Compound 371, 2-((1H-benzo[d][1,2,3]triazol-5-yl)methyl)-3-((4-chloro-3-(2-methoxyethoxy)-1-methyl-1H-pyrazol-5-yl)methyl)isoindolin-1-one] | > 1.5
< 500 | < 500 | A (A>3) | Cc1ccnc(C(C)(C)O)c1CC1c2ccccc2C(=O)N1Cc1ccc2[nH]nnc2c1 (stereo not drawn) [Compound 375, 2-((1H-benzo[d][1,2,3]triazol-5-yl)methyl)-3-((2-(2-hydroxypropan-2-yl)-4-methylpyridin-3-yl)methyl)isoindolin-1-one] | > 1.5
< 500 | < 500 | B (3≥B>2) | Cc1ccnc(Br)c1CC1c2ccccc2C(=O)N1C/C=C/c1c[nH]nn1 (stereo not drawn) [Compound 380, (E)-2-(3-(1H-1,2,3-triazol-4-yl)allyl)-3-((2-bromo-4-methylpyridin-3-yl)methyl) isoindolin-1-one] | > 1.5
< 500 | < 500 | B (3≥B>2) | Cn1c(CC2c3ccccc3C(=O)N2Cc2ccc3[nH]nnc3c2)c(Cl)ccc1=O (stereo not drawn) [Compound 381, 2-((1H-benzo[d][1,2,3]triazol-5-yl)methyl)-3-((3-chloro-1-methyl-6-oxo-1,6-dihydropyridin-2-yl)methyl)isoindolin-1-one] | > 1.5
500 to 5000 | 500 to 5000 | B (3≥B>2) | Cn1ncc(Cl)c1CC1c2cc(C(C)(C)O)ccc2C(=O)N1Cc1ccc2[nH]nnc2c1 (stereo not drawn) [Compound 382, 2-((1H-benzo[d][1,2,3]triazol-5-yl)methyl)-3-((4-chloro-1-methyl-1H-pyrazol-5-yl)methyl)-5-(2-hydroxypropan-2-yl)isoindolin-1-one] | > 1.5
< 500 | < 500 | B (3≥B>2) | Cc1ncnc(C#N)c1CC1c2ccccc2C(=O)N1Cc1ccc2[nH]nnc2c1 (stereo not drawn) [Compound 384, 5-((2-((1H-benzo[d][1,2,3]triazol-5-yl)methyl)-3-oxoisoindolin-1-yl)methyl)-6-methylpyrimidine-4-carbonitrile] | > 1.5
5000 to 50000 | 500 to 5000 | B (3≥B>2) | CN1CC(c2ccc3c(c2)C(Cc2c(Cl)cnn2C)N(Cc2ccc4[nH]nnc4c2)C3=O)C1 (stereo not drawn) [Compound 385, 2-((1H-benzo[d][1,2,3]triazol-5-yl)methyl)-3-((4-chloro-1-methyl-1H-pyrazol-5-yl)methyl)-5-(1-methylazetidin-3-yl)isoindolin-1-one] | > 1.5
500 to 5000 | < 500 | B (3≥B>2) | O=C1c2ccccc2C(Cc2n[nH]cc2Cl)N1Cc1ccc2[nH]nnc2c1 (stereo not drawn) [Compound 388, 2-((1H-benzo[d][1,2,3]triazol-5-yl)methyl)-3-((4-chloro-1H-pyrazol-3-yl)methyl)isoindolin-1-one] | > 1.5
< 500 | < 500 | B (3≥B>2) | Cc1c(CC2c3ccccc3C(=O)N2Cc2ccc3[nH]nnc3c2)c(C#N)nn1C (stereo not drawn) [Compound 393, 4-((2-((1H-benzo[d][1,2,3]triazol-5-yl)methyl)-3-oxoisoindolin-1-yl)methyl)-1,5-dimethyl-1H-pyrazole-3-carbonitrile] | > 1.5
500 to 5000 | < 500 | B (3≥B>2) | Cn1ncc(Cl)c1CC1c2cc(CC3COC3)ccc2C(=O)N1Cc1ccc2[nH]nnc2c1 (stereo not drawn) [Compound 394, 2-((1H-benzo[d][1,2,3]triazol-5-yl)methyl)-3-((4-chloro-1-methyl-1H-pyrazol-5-yl)methyl)-5-(oxetan-3-ylmethyl)isoindolin-1-one] | > 1.5
500 to 5000 | 500 to 5000 | C (2≥C) | CC1NC(=O)OC12CC(CN1C(=O)c3ccccc3C1Cc1ncccc1Br)C2 (stereo not drawn) [Compound 395, 2-((1-((3-bromopyridin-2-yl)methyl)-3-oxoisoindolin-2-yl)methyl)-8-methyl-5-oxa-7-azaspiro[3.4]octan-6-one] | > 1.5
